The values below come from ChEMBL document CHEMBL1201862, “PubChem BioAssay data set” (2004).

SMILES strings stand for the structures.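 Test compounds were applied to cells in 96-well plates for 48 hours at 5 doses. At the GI50, growth is halved.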 Calls of active or inactive are those of the source. No stated cut-off is given here; in the data, active = GI50 up to about 1.1 µM and inactive = higher. Bounds are passed on as bounds.

Test systems include DMS-114; RXF 393; MOLT-4; HOP-92; UACC-62; SNB-78; DLD-1; ACHN; M19-MEL; LXFL 529; HCT-15; M14; SR; TK-10; NCI-H226; MCF7; Malme-3M; MDA-MB-435; NCI/ADR-RES; HOP-18.
Assay in all cases: NCI anticancer screen, dose series, 48 h

Regarding `O=C(c1ccccc1)c1ccc2c(c1)N=C(c1ccc(Cl)c(Cl)c1)CC(c1ccc3ccccc3c1)N2` (stereo unspecified), the GI50 in the test on DMS-114, in the test with RXF 393, in the test with MOLT-4, in the test on HOP-92, with UACC-62 and with SNB-78 was > 100 µM (inactive) in each case. Further, the GI50 was > 100 µM (inactive) in the test with DLD-1; > 100 µM (inactive) in the test on ACHN; > 100 µM (inactive) in the test on M19-MEL; > 100 µM (inactive) in the test on LXFL 529; greater than 100 µM with HCT-15; > 100 µM (inactive) with M14. Also, the GI50 in the test with SR, with TK-10 and in the test on NCI-H226 was > 100 µM (inactive) throughout.
Take `COc1nc2ccc(Cl)c(C(O)c3ccccc3)c2nc1OC` (stereo unspecified): the GI50 with RXF 393 is 14.3 µM (inactive); with MCF7, 29.7 µM (inactive); in the test on Malme-3M, 32.9 µM (inactive); in the test on MOLT-4, 17.6 µM (inactive); in the test on HOP-92, 12.9 µM (inactive); with MDA-MB-435 it was 12.5 µM (inactive). Moreover, the GI50 was 17.1 µM (inactive) in the test on UACC-62; 20.3 µM (inactive) with NCI/ADR-RES; 30.2 µM (inactive) in the test with ACHN; 20.6 µM in the test on HCT-15; 17.2 µM (inactive) in the test on M14; 6.52 µM (inactive) with SR. Further, the GI50 in the test on TK-10 was 37.2 µM (inactive); with NCI-H226, 16.3 µM (inactive).
On to `CCC(C(=O)O)c1ccc(OCc2ccccc2)cc1` (stereo unspecified), for which the GI50 with DMS-114, in the test on RXF 393, in the test with Malme-3M, in the test on MOLT-4, with HOP-92 and with UACC-62 was > 100 µM (inactive) each time. The GI50 in the test with SNB-78, in the test with DLD-1, with ACHN, in the test with LXFL 529, with M14 and with SR was > 100 µM (inactive) each time. Also, the GI50 in the test on TK-10 and in the test with NCI-H226 was > 100 µM (inactive) throughout.
As to `O[C@H]1[C@H](O)[C@@H](O)CN2CC[C@H](O)[C@H]12` [CASTANOSPERMINE], the GI50 with DMS-114 was > 100 µM (inactive); in the test on RXF 393 it was > 100 µM (inactive); in the test with MCF7, > 100 µM (inactive); in the test on Malme-3M it was > 90.6 µM (inactive); with MOLT-4 it was > 100 µM (inactive); with HOP-92, > 100 µM (inactive). Also, the GI50 in the test with UACC-62 was > 100 µM (inactive); in the test on SNB-78, > 100 µM (inactive); in the test on DLD-1, > 100 µM (inactive); in the test on NCI/ADR-RES, > 100 µM (inactive); in the test with HOP-18 it was > 100 µM (inactive); in the test with M19-MEL, 32.8 µM (inactive). In addition, the figures for the GI50 with HCT-15 and with NCI-H226 were greater than 100 µM and > 100 µM (inactive), respectively.
In the case of `CN(C)CCNCc1c2ccccc2c(CNCCN(C)C)c2ccccc12`, the GI50 in the test with DMS-114 is 26 µM (inactive); with RXF 393, 20.6 µM (inactive); in the test on MCF7 it was 26 µM (inactive); in the test with Malme-3M, 18.4 µM (inactive); with MOLT-4, 2.2 µM (inactive); in the test with HOP-92 it was 10.4 µM (inactive). The GI50 in the test on UACC-62 was 26.1 µM (inactive); in the test on SNB-78 it was 41.8 µM (inactive); in the test on DLD-1, 29.4 µM (inactive); in the test with NCI/ADR-RES, > 100 µM (inactive); with HOP-18 it was 44.4 µM (inactive); in the test on M19-MEL it was 24.5 µM (inactive). Moreover, the results for the GI50 with HCT-15 and in the test on NCI-H226 were 41.1 µM and 19.5 µM (inactive), respectively.
With `Nc1nc(=O)n(C2OC(CO)C(O)C2O)cc1F` (stereo unspecified), the GI50 in the test with DMS-114 is 0.0462 µM (active); in the test on RXF 393 it was 43.5 µM (inactive); in the test on MCF7 it was 3.99 µM (inactive); with MOLT-4 it was < 0.0166 µM (active); in the test with HOP-92 it was 0.0755 µM (active); with UACC-62 it was 1.36 µM (inactive). The GI50 is > 100 µM (inactive) with DLD-1; 0.76 µM (active) in the test on NCI/ADR-RES; 2.44 µM (inactive) in the test with HOP-18; 0.731 µM (active) with M19-MEL; 3.13 µM in the test with HCT-15; > 100 µM (inactive) in the test with NCI-H226.
As for `C=CCCC1(C)CCCNC1=S` (stereo unspecified), the GI50 in the test with DMS-114, with RXF 393, with Malme-3M, in the test with MOLT-4, with HOP-92 and in the test on UACC-62 was > 100 µM (inactive) in each case. The GI50 with DLD-1 was > 100 µM (inactive); in the test on HOP-18, > 100 µM (inactive); in the test on ACHN, > 100 µM (inactive); in the test on HCT-15, greater than 100 µM; in the test with M14 it was > 100 µM (inactive); in the test with SR, > 100 µM (inactive). Also, the GI50 in the test on TK-10 and in the test with NCI-H226 was > 100 µM (inactive) throughout.
On to `O=C(O)CCC(NC(=O)c1ccc(Nc2nc3ccc(C(F)(F)F)cc3nc2-c2ccccc2)cc1)C(=O)O` (stereo unspecified), for which the GI50 is > 100 µM (inactive) in the test with DMS-114; > 100 µM (inactive) in the test on RXF 393; > 100 µM (inactive) with MCF7; > 100 µM (inactive) with Malme-3M; > 100 µM (inactive) in the test with MOLT-4; > 46.6 µM (inactive) in the test with HOP-92. The GI50 in the test on UACC-62 was > 100 µM (inactive); in the test on SNB-78 it was > 100 µM (inactive); in the test with DLD-1, > 100 µM (inactive); with NCI/ADR-RES, > 100 µM (inactive); in the test on HOP-18, 3.37 µM (inactive); in the test on M19-MEL, > 100 µM (inactive). For the same compound, the GI50 with HCT-15 is greater than 100 µM; with NCI-H226, > 100 µM (inactive).
Turning to `CCN1CC2(CO)CCC(OC)C34C5CC6C(OC)CC(O)(C5C6OC)C(O)(C(OC)C23)C14` (stereo unspecified), the GI50 in the test on DMS-114 was > 375 µM (inactive); with RXF 393, > 375 µM (inactive); in the test on MCF7 it was > 375 µM (inactive); with Malme-3M, > 375 µM (inactive); with MOLT-4, > 375 µM (inactive); in the test on HOP-92, 168 µM (inactive). Further, the GI50 in the test on UACC-62 was > 375 µM (inactive); in the test with SNB-78, > 375 µM (inactive); with DLD-1, 80.7 µM (inactive); in the test with NCI/ADR-RES, > 375 µM (inactive); in the test with HOP-18, > 375 µM (inactive); in the test with M19-MEL, > 375 µM (inactive). The GI50 in the test on HCT-15 was greater than 375 µM; with NCI-H226 it was > 375 µM (inactive).
Take `c1ccc(Sc2nc(Sc3ccccc3)nc(Sc3ccccc3)n2)cc1`: the GI50 in the test with RXF 393 is 61.7 µM (inactive); in the test with MCF7, 26.5 µM (inactive); in the test with Malme-3M it was > 100 µM (inactive); with MOLT-4 it was 17.8 µM (inactive); in the test on MDA-MB-435 it was 52.1 µM (inactive); in the test with UACC-62, > 100 µM (inactive). Further, the GI50 was 29.8 µM (inactive) in the test with ACHN; 33.4 µM with HCT-15; > 100 µM (inactive) with M14; > 100 µM (inactive) in the test with SR; 44.6 µM (inactive) with TK-10; 25.9 µM (inactive) in the test on NCI-H226.
With `Cn1c(-c2ccccc2)cc(-c2cccs2)c1-c1cccs1`, the GI50 was > 52 µM (inactive) in the test with DMS-114; > 81.3 µM (inactive) with RXF 393; 24 µM (inactive) with MCF7; > 100 µM (inactive) in the test on Malme-3M; 48.9 µM (inactive) in the test with MOLT-4; > 29.2 µM (inactive) with HOP-92. The GI50 is > 100 µM (inactive) in the test with UACC-62; > 100 µM (inactive) in the test with SNB-78; > 100 µM (inactive) in the test on DLD-1; > 100 µM (inactive) in the test on NCI/ADR-RES; > 100 µM (inactive) in the test with HOP-18; 83.2 µM (inactive) with M19-MEL. In addition, the GI50 was 46.2 µM in the test on HCT-15 and > 100 µM (inactive) in the test with NCI-H226.
As for `O=CNc1cccc2c3c([nH]c12)CCCCCC3`, the GI50 is > 81.5 µM (inactive) with DMS-114; > 75.7 µM (inactive) in the test on RXF 393; > 100 µM (inactive) in the test on MCF7; > 85.5 µM (inactive) with Malme-3M; 66.1 µM (inactive) with MOLT-4; 48 µM (inactive) in the test on HOP-92. Also, the GI50 was > 100 µM (inactive) in the test with UACC-62; > 92 µM (inactive) in the test on SNB-78; > 100 µM (inactive) in the test on DLD-1; > 100 µM (inactive) in the test with NCI/ADR-RES; > 100 µM (inactive) with HOP-18; > 100 µM (inactive) in the test with M19-MEL. For the same compound, the GI50 in the test on HCT-15 was greater than 100 µM; with NCI-H226, > 100 µM (inactive).
For the compound `COc1ccc(-c2oc3cc(O)cc(O)c3c(=O)c2OC)cc1` [ERMANIN], the GI50 in the test on MCF7 was 38.5 µM (inactive); in the test on Malme-3M it was 38.8 µM (inactive); in the test with MOLT-4 it was 20.9 µM (inactive); with HOP-92, 3.23 µM (inactive); in the test with MDA-MB-435 it was 17.8 µM (inactive); in the test with UACC-62, 21.5 µM (inactive). In addition, the GI50 with NCI/ADR-RES is 27.2 µM (inactive); in the test with ACHN it was 24.3 µM (inactive); with HCT-15, 23.4 µM; in the test on M14 it was 37.2 µM (inactive); in the test with SR it was 19.5 µM (inactive); with TK-10 it was 39.9 µM (inactive).
On to `COc1ccc(C2C(C#N)=C(O)NC(O)=C2C#N)cc1OC`, for which the GI50 in the test with Malme-3M, with MOLT-4, in the test with HOP-92, in the test with SNB-78, in the test with HOP-18 and with M19-MEL was > 100 µM (inactive) each time. For the same compound, the GI50 in the test on LXFL 529 is > 100 µM (inactive); in the test with HCT-15, greater than 100 µM; in the test with M14, > 100 µM (inactive); in the test on SR it was > 100 µM (inactive).
Regarding `c1ccc(P(CCP(c2ccccn2)c2ccccn2)c2ccccc2)cc1`, the GI50 in the test with RXF 393 was 19.8 µM (inactive); in the test with MCF7 it was 0.0261 µM (active); with Malme-3M it was 25.2 µM (inactive); in the test with MOLT-4 it was 80.2 µM (inactive); with HOP-92 it was 3.01 µM (inactive); in the test on MDA-MB-435, 12.1 µM (inactive). For the same compound, the GI50 in the test with UACC-62 was 63.7 µM (inactive); in the test with NCI/ADR-RES it was > 100 µM (inactive); with ACHN, 23.3 µM (inactive); in the test on HCT-15 it was greater than 100 µM; in the test on M14, 19.6 µM (inactive); in the test on SR, 19.4 µM (inactive). For the same compound, the GI50 was 26.5 µM (inactive) in the test on TK-10 and 45.3 µM (inactive) in the test on NCI-H226.
